# According to publication PMC11653366, “The conformation of the nSrc specificity-determining loop in the Src SH3 domain is modulated by a WX conserved sequence motif found in SH3 domains” (Frontiers in Molecular Biosciences, 2024):
# Several values for one entry are separate records, joined by “and”; a condition that tells them apart may be missing. Identical values can stand only once. Like-named read-outs stand apart in the source and are kept apart here. Peptide text beside a SMILES is read from it. * marks the point of attachment. FITC = O=C1OC2(c3ccc(O)cc3Oc3cc(O)ccc32)c2ccc(NC(=S)*)cc21; Ahx = NCCCCCC(=O)O
# What was measured:
# [1] = biological target: T1, SrcAbl SH3 (Homo sapiens, UniProt P12931, D120E/E100D/E118N/E96V/R98S/S97A/T101N/T117H/T99G); assay: Fluorescence anisotropy binding, SrcAbl SH3 chimera (Src SH3 with Abl RT and nSrc loops); conditions: 30 nM fluorescent peptide, running buffer + 0.1 mg/mL BSA + 0.5 mM Thesit, average of triplicate experiments
# T1 construct: His6-SUMO (N, cleaved yes); made in house; host or cells: Escherichia coli BL21 DE3
# [2] = biological target: T2, C100W Abl SH3 (Homo sapiens, UniProt P00519, C100W); assay: Fluorescence anisotropy binding, C100W Abl SH3; conditions: 30 nM fluorescent peptide, running buffer + 0.1 mg/mL BSA + 0.5 mM Thesit, average of triplicate experiments, >1,000 = undetectable
# T2 construct: His6-SUMO (N, cleaved yes); made in house; host or cells: Escherichia coli BL21 DE3
# T2 sequence (P00519 61-121 C100W limits assumed): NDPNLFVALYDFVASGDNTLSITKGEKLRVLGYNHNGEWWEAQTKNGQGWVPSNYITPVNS
# Description: (§1) Sequences corresponding to the Abl and Src SH3 (residues 84-145, UniProt ID SRC_HUMAN) domains were used for the wild-type SH3 domains. All proteins were expressed as His6-SUMO fusion proteins using the pET28a (+) plasmid (Genscript). Expression and purification protocols were similar to those used previously for other SLiM-binding domains [([Tahti et al., 2023]; [Gao et al., 2020]; [Wofford et al., 2021])]. All sequences used are in the Supporting Information.
# (§2) Briefly, plasmids were transformed into BL21 DE3 chemically competent Escherichia coli cells. Selected colonies were grown in Terrific Broth (TB) at 37°C with shaking at 210 rpm. Once an optical density (OD) of 0.6–0.8 at λ = 600 nm was reached, protein expression was induced by the addition of 0.15 mM isopropyl-β-D-1-thiogalactopyranoside (IPTG) for 16–18 h at 18°C. […] SDS-PAGE was used to assess protein purity and the absorbance at λ = 280 nm with the calculated extinction coefficient (s), by Expasy ProtParam, was used to calculate protein concentration ([Wilkins et al., 1999]).
# (§3) Fluorescence anisotropy assays were performed using a BioTek Synergy H1 plate reader, as previously described [([Tahti et al., 2023]; [Gao et al., 2020]; [Wofford et al., 2021]; [Valgardson et al., 2019])]. […] Determined K D values were the average calculated from triplicate experiments ([Cushing et al., 2008]). […]
# [3] = biological target: T3, AblSrc SH3 (Homo sapiens, UniProt P00519, A74S/D77E/E98D/G76T/H95T/N78T/N96E/S75R/V73E); assay: Fluorescence anisotropy binding, AblSrc SH3 chimera (Abl SH3 with Src RT and nSrc loops); conditions: 30 nM fluorescent peptide, running buffer + 0.1 mg/mL BSA + 0.5 mM Thesit, average of triplicate experiments, >1,000 = undetectable
# T3 construct: His6-SUMO (N, cleaved yes); made in house; host or cells: Escherichia coli BL21 DE3
# T3 sequence (P00519 61-121 V73E/A74S/S75R/G76T/D77E/N78T/H95T/N96E/E98D limits assumed): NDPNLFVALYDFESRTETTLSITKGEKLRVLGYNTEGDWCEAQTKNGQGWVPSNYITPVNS
# Description: (§4) Therefore, we wanted to engineer chimeric proteins to test if these loops alone could mediate specificity switching. In our chimeras, we swapped both the RT (sequence: ^96ESRTET^101) and nSrc (^117TEGD^120) loops of Src with the RT (^73VASGDN^78) and nSrc (^95HNGE^98) loop sequences of Abl, and vice versa in each SH3 domain. We termed the resulting proteins, SrcAbl and AblSrc, where the subscript indicates the sequence identity of both the RT and nSrc loops.
# (§5) Sequences corresponding to the Abl and Src SH3 (residues 84-145, UniProt ID SRC_HUMAN) domains were used for the wild-type SH3 domains. All proteins were expressed as His6-SUMO fusion proteins using the pET28a (+) plasmid (Genscript). […]
# (§6) Briefly, plasmids were transformed into BL21 DE3 chemically competent Escherichia coli cells. […] SDS-PAGE was used to assess protein purity and the absorbance at λ = 280 nm with the calculated extinction coefficient (s), by Expasy ProtParam, was used to calculate protein concentration ([Wilkins et al., 1999]).
# as §3
# [4] = biological target: T4, Abl SH3 (Homo sapiens, UniProt P00519); assay: Fluorescence anisotropy binding, Abl SH3; conditions: 30 nM fluorescent peptide, running buffer + 0.1 mg/mL BSA + 0.5 mM Thesit, average of triplicate experiments
# T4 construct: His6-SUMO (N, cleaved yes); made in house; host or cells: Escherichia coli BL21 DE3
# T4 sequence (P00519 61-121 limits assumed): as the sequence (P00519 61-121 C100W limits assumed) above, with W40C counted along it
# Description: as §1, §2, §3
# [5] = biological target: T5, W122C SrcAbl SH3 (Homo sapiens, UniProt P12931, D120E/E100D/E118N/E96V/R98S/S97A/T101N/T117H/T99G/W122C); assay: Fluorescence anisotropy binding, W122C SrcAbl SH3; conditions: 30 nM fluorescent peptide, running buffer + 0.1 mg/mL BSA + 0.5 mM Thesit, average of triplicate experiments
# T5 construct: His6-SUMO (N, cleaved yes); made in house; host or cells: Escherichia coli BL21 DE3
# Description: as §4, §5, §6, §3
# [6] = biological target: T6, W122C Src SH3 (Homo sapiens, UniProt P12931, W122C); assay: Fluorescence anisotropy binding, W122C Src SH3; conditions: 30 nM fluorescent peptide, running buffer + 0.1 mg/mL BSA + 0.5 mM Thesit, average of triplicate experiments
# T6 construct: His6-SUMO (N, cleaved yes); made in house; host or cells: Escherichia coli BL21 DE3
# Description: (§7) Fluorescence anisotropy assays were performed using a BioTek Synergy H1 plate reader, as previously described [([Tahti et al., 2023]; [Gao et al., 2020]; [Wofford et al., 2021]; [Valgardson et al., 2019])]. Solution conditions included running buffer plus 0.1 mg/mL bovine serine albumin (BSA) and 0.5 mM Thesit, with 30 nM fluorescent peptide. Determined K D values were the average calculated from triplicate experiments ([Cushing et al., 2008]). K d values were determined as previously, and as the midpoint between the anisotropy resulting from the free reporter peptide and SH3-peptide complex [([Cushing et al., 2008]; [Vouilleme et al., 2010]; [Amacher et al., 2013]; [Amacher et al., 2014])].
# [7] = biological target: T7, Src SH3 (Homo sapiens, UniProt P12931); assay: Fluorescence anisotropy binding, Src SH3; conditions: 30 nM fluorescent peptide, running buffer + 0.1 mg/mL BSA + 0.5 mM Thesit, average of triplicate experiments, >1,000 = no binding
# T7 construct: His6-SUMO (N, cleaved yes); made in house; host or cells: Escherichia coli BL21 DE3
# Description: as §7
# [8] = biological target: Fyn SH3; design: method as in Pisabarro and Serrano, 1996; Pisabarro et al., 1998; conditions: Fyn SH3, previously published; ref Pisabarro and Serrano, 1996; Pisabarro et al., 1998; read-out: affinity (K D); cited from earlier work
# [9] = biological target: T4, Abl SH3; design: method as in Pisabarro and Serrano, 1996; Pisabarro et al., 1998; conditions: Abl SH3, previously published; ref Pisabarro and Serrano, 1996; Pisabarro et al., 1998; read-out: affinity (K D); cited from earlier work
Compound,Kd [1] [µM],Kd [2] [µM],Kd [3] [µM],Kd [4] [µM],Kd [5] [µM],Kd [6] [mM],Kd [7] [mM],Kd [8],Kd [9] [µM]
CC(C)C[C@H](NC(=O)CCCCCNC(=S)Nc1ccc2c(c1)C(=O)OC21c2ccc(O)cc2Oc2cc(O)ccc21)C(=O)N[C@@H](C)C(=O)N[C@@H](CO)C(=O)N[C@@H](CCCNC(=N)N)C(=O)N1CCC[C@H]1C(=O)N[C@@H](CC(C)C)C(=O)N1CCC[C@H]1C(=O)N[C@@H](CC(C)C)C(=O)N[C@@H](CC(C)C)C(=O)N1CCC[C@H]1C(=O)O [F*-PLLP],140 ± 20,> 1000,> 1000,> 1000,> 1000,,,,
C[C@H](NC(=O)CCCCCNC(=S)Nc1ccc2c(c1)C(=O)OC21c2ccc(O)cc2Oc2cc(O)ccc21)C(=O)N1CCC[C@H]1C(=O)N[C@H](C(=O)N[C@@H](Cc1ccc(O)cc1)C(=O)N[C@@H](CO)C(=O)N1CCC[C@H]1C(=O)N1CCC[C@H]1C(=O)N1CCC[C@H]1C(=O)N1CCC[C@H]1C(=O)N1CCC[C@H]1C(=O)O)[C@@H](C)O [F*-p40] ({FITC-Ahx}-APTYSPPPPP-OH),130 ± 40,55 ± 20,210 ± 30,3.1 ± 0.4,450 ± 190,> 1,> 1,,
C[C@H](N)C(=O)N1CCC[C@H]1C(=O)N[C@H](C(=O)N[C@@H](Cc1ccc(O)cc1)C(=O)N[C@@H](CO)C(=O)N1CCC[C@H]1C(=O)N1CCC[C@H]1C(=O)N1CCC[C@H]1C(=O)N1CCC[C@H]1C(=O)N1CCC[C@H]1C(=O)O)[C@@H](C)O [p40] (H-APTYSPPPPP-OH; N-terminus and C-terminus assumed),,,,,,,> 1,472 µM and 470 µM,
"RAPTMPPPLPP [initial ligand, derived from the 3BP1 protein]",,,,,,,,30 µM,30
